Assay results reported in patent US8367873B2, “Phenyl-substituted bicyclooctane-1,3-dione derivatives” (Bayer Cropscience AG, priority 2008, dated 2013).

How the values were obtained:
Format in all cases: in vivo
Alopecurus myosuroides [1] = assay: Herbicidal pre-emergence action; conditions: pre-emergence method, 80 g/ha, greenhouse, visual assessment vs untreated controls
In short: (§1)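 Seeds sown in sandy loam and covered with soil; WP-formulated compounds applied as aqueous suspension (600 l/ha water, 0.2% wetting agent) to the soil surface at various rates. Greenhouse-grown; emergence damage scored visually after three weeks versus untreated controls (0% = like control, 100% = plants dead).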

Echinocloa crus-galli [2] = assay: Herbicidal pre-emergence action; conditions: pre-emergence method, 80 g/ha, greenhouse, visual assessment vs untreated controls
In short: as §1

Lolium multiflorum [3] = assay: Herbicidal pre-emergence action; conditions: pre-emergence method, 80 g/ha, greenhouse, visual assessment vs untreated controls
In short: as §1

Setaria viridis [4] = assay: Herbicidal pre-emergence action; conditions: pre-emergence method, 80 g/ha, greenhouse, visual assessment vs untreated controls
In short: as §1

Alopecurus myosuroides [5] = assay: Herbicidal post-emergence action; conditions: post-emergence method, 80 g/ha
In short: (§2)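 Greenhouse-grown weeds were treated post-emergence at the one-leaf stage, two to three weeks after sowing in sandy loam. Compounds formulated as WP were sprayed at various rates in 600 l/ha water with 0.2% wetting agent. Damage was scored visually after about three weeks versus untreated controls (0% = like control, 100% = dead).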

Echinocloa crus-galli [6] = assay: Herbicidal post-emergence action; conditions: post-emergence method, 80 g/ha
In short: as §2

Lolium multiflorum [7] = assay: Herbicidal post-emergence action; conditions: post-emergence method, 80 g/ha
In short: as §2

Setaria viridis [8] = assay: Herbicidal post-emergence action; conditions: post-emergence method, 80 g/ha
In short: as §2

[9] = test system: monocotylidonous and dicotylidonous weed and crop plants; assay: Herbicidal pre-emergence action (other test plants); conditions: pre-emergence method, 80 g/ha, greenhouse, visual assessment vs untreated controls
In short: as §1

[10] = test system: monocotylidonous and dicotylidonous weed and crop plants; assay: Herbicidal post-emergence action (other test plants); conditions: post-emergence method, 80 g/ha
In short: as §2

SMILES | herbicidal effect ALOMY (Alopecurus myosuroides [1]) | herbicidal effect ECHCG (Echinocloa crus-galli [2]) | herbicidal effect LOLMU (Lolium multiflorum [3]) | herbicidal effect SETVI (Setaria viridis [4]) | herbicidal effect against ALOMY (Alopecurus myosuroides) (Alopecurus myosuroides [5]) | herbicidal effect against ECHCG (Echinochloa crus-galli) (Echinocloa crus-galli [6]) | herbicidal effect against LOLMU (Lolium multiflorum) (Lolium multiflorum [7]) | herbicidal effect against SETVI (Setaria viridis) (Setaria viridis [8]) | herbicidal effect AVEFA [9] | herbicidal effect against AVEFA (Avena fatua) [10]
CCc1cc(C)cc(CC)c1C1=C(O)[C@H]2CC3(C[C@H]2C1=O)OCC(OC)CO3 (relative stereo) [I-a-26] | 100% | 100% | 100% | 100% | 100% | 100% | 100% | 100% | 70% | 100%
CCc1cc(C)cc(CC)c1C1=C(O)[C@H]2CC3(C[C@H]2C1=O)OCC(OCc1ccccc1)CO3 (relative stereo) [I-a-27] | 90% | 100% | 100% | 90% | 100% | 100% | 100% | 90% | 80% | 100%
CCOC1COC2(C[C@@H]3C(O)=C(c4c(CC)cc(C)cc4CC)C(=O)[C@@H]3C2)OC1 (relative stereo) [I-a-28] | 100% | 100% | 100% | 90% | 100% | 100% | 100% | 100% | 80% | 100%
CCc1cc(C)cc(CC)c1C1=C(O)[C@H]2CC(=NOCC3CC3)C[C@H]2C1=O (relative stereo) [I-a-31] | 80% | 100% | 100% | 90% | 100% | 100% | 100% | 100% | 40% | 80%
C#CC(C)ON=C1C[C@@H]2C(O)=C(c3c(CC)cc(C)cc3CC)C(=O)[C@@H]2C1 (relative stereo) [I-a-32] | 90% | 40% | 100% | 20% | 80% | 100% | 100% | 20% | 60% | 0%
C=C1C[C@@H]2C(O)=C(c3c(C)cc(C)cc3C)C(=O)[C@@H]2C1 (relative stereo) [I-a-36] | 60% | 80% | 90% | 80% | 50% | 90% | 90% | 90% | 70% | 0%
Cc1cc(C)c(C2=C(O)[C@H]3CC4(C[C@H]3C2=O)OCC(C)CO4)c(C)c1 (relative stereo) [I-a-38] | 100% | 40% | 100% | 90% | 100% | 80% | 100% | 90% | 40% | 90%
CCc1cc(C)cc(CC)c1C1=C(OC(=O)OC)[C@H]2C[C@]3(COC(C)(C)O3)C[C@H]2C1=O (relative stereo) [I-c-4] | 90% | 60% | 90% | 50% | 90% | 100% | 100% | 0% | 80% | 90%
CCOC(=O)OC1=C(c2c(CC)cc(C)cc2CC)C(=O)[C@@H]2CC3(C[C@H]12)OCC=CCO3 (relative stereo) [I-c-11] | 90% | 100% | 90% | 90% | 80% | 100% | 90% | 90% | 70% | 80%
C=C1COC2(C[C@@H]3C(OC(=O)OCC)=C(c4c(CC)cc(C)cc4CC)C(=O)[C@@H]3C2)OC1 (relative stereo) [I-c-12] | 100% | 100% | 100% | 100% | 90% | 100% | 100% | 100% | 80% | 90%
